Consider 17 compounds from US20230365563A1, “QUINAZOLINE COMPOUND AND APPLICATION THEREOF” (SHANGHAI PHARMACEUTICALS HOLDING CO., LTD., priority 2020, published 2023).

One assay has as its target T1, KRAS_WT and SOS1 (Homo sapiens, UniProt P01116).
T1 construct: purchased
In words: Inhibition of KRAS_WT/SOS1 binding (Cisbio binding kit, 665/615 ratio), Effect Embodiment C. To be noted: read-out: GTP-KRAS-WT:SOS1 IC50. As to the method: The inhibitory ability of small molecule compounds on the binding activity of KRAS_WT and SOS1 was examined by a drug screening system based on the combination of KRAS_WT and SOS1.
(§1) Similarly, the first dilution point of the compound to be tested was its storage solution, and the solution was 3-fold diluted, with 11+0 points of dilution. Echo was used to transfer 0.2 μL gradient diluted solution of the compounds into a 384-well plate, with 2 duplicated wells for each compound, and the final concentration of DMSO was 1%. The solution was centrifuged for 1 min at 1000 rpm/min.
(§2) IC50 of the compounds was fitted by Graphpad Prism 8 nonlinear regression equation: […]
(§3) The IC50 (half inhibitory concentration) of the compound was obtained by using the following nonlinear fitting formula: […]

A further assay has as its target T2, KRAS_G12D and cRAF (Homo sapiens, UniProt P01116, G12D).
T2 construct: purchased
The assay is described as follows: Inhibition of KRAS_G12D/cRAF binding (Cisbio binding kit, 665/615 ratio), Effect Embodiment B. The following applies: read-out: GTP-KRAS-G12D:CRAF IC50. As to the method:
as §1, §2, §3

In a further assay the target is T3, KRAS-G12D and SOS1 (Homo sapiens, UniProt P01116, G12D).
T3 construct: purchased
T3 sequence (P01116 1-188 isoform P01116-2 G12D): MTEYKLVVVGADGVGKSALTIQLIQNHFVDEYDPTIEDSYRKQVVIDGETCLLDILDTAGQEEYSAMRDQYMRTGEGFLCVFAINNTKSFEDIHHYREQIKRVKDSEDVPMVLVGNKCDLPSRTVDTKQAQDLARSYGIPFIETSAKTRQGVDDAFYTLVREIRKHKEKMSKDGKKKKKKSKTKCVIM
In words: Inhibition of KRAS-G12D/SOS1 binding (Cisbio binding kit, 665/615 ratio), Effect Embodiment A. To be noted: read-out: GTP-KRAS-G12D:SOS1 IC50. The method, boiled down: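 Compounds are tested over eleven threefold dilution steps in duplicate, with final DMSO at 1%.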

Structures can show the parent of a compound that is named as a salt.

T2 sequence (P01116 1-188 isoform P01116-2 G12D): as above
T1 sequence (P01116 1-188 isoform P01116-2): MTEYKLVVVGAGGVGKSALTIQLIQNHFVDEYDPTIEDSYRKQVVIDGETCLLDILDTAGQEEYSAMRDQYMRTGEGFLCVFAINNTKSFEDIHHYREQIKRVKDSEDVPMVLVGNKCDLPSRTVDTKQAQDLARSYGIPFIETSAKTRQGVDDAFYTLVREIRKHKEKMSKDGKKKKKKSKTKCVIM

Take `CN1CCCC[C@H]1COc1nc(N2CC3CCC(C2)N3)c2cc(Cl)c(-c3cc(O)cc4ccccc34)c(F)c2n1` (single isomer, unassigned) [Compound 56a, 4-((S or R)-4-((1R,5S)-3,8-diazabicyclo[3.2.1]octan-3-yl)-6-chloro-8-fluoro-2-((S)-1-methylpiperidin-2-yl)methoxy)quinazolin-7-yl)naphthalen-2-ol dihydrochloride]: the half-maximal inhibitory concentration (IC50) on KRAS_WT and SOS1 turned out to be 14000 nM; at KRAS_G12D and cRAF, 461 nM; on KRAS-G12D and SOS1, 64.1 nM.

Turning to `Oc1cc(-c2c(Cl)cc3c(N4CC5CCC(C4)N5)nc(OC[C@@]45CCCN4C[C@H](F)C5)nc3c2F)c2c(F)c(F)ccc2c1` (single isomer, unassigned) [Compound 214a, 4-((S or R)-4-((1R,5S)-3,8-diazabicyclo[3.2.1]octane-3-yl)-6-chloro-8-fluoro-2-((2R,7aS)-2-fluorotetrahydro-1H-pyrrolidin-7a (5H)-yl)methoxy)quinazolin-7-yl)-5,6-difluoronaphthalen-2-ol diformate], the IC50 on KRAS_WT and SOS1 was 8.01 nM; on KRAS_G12D and cRAF it was 8.68 nM; on KRAS-G12D and SOS1, 13.2 nM.

For the compound `Oc1cc(-c2c(Cl)cc3c(N4CC5CCC(C4)N5)nc(OCCCN4C5CCC4COC5)nc3c2F)c2cc(F)ccc2c1` (single isomer, unassigned) [compound 252], the IC50 on KRAS_WT and SOS1 turned out to be 414 nM; at KRAS_G12D and cRAF, 48 nM; on KRAS-G12D and SOS1, 21.7 nM.

Turning to `CC(C)NCCCOc1nc(N2CC3CCC(C2)N3)c2cc(Cl)c(-c3cc(O)cc4ccccc34)c(F)c2n1` (single isomer, unassigned) [Compound 101, 4-((S or R)-4-((1R,5S)-3,8-diazabicyclo[3.2.1]octan-3-yl)-6-chloro-8-fluoro-2-(3-(isopropylamino)propoxy)quinazolin-7-yl)naphthalen-2-ol dihydrochloride], the IC50 at KRAS_WT and SOS1 came to 2470 nM; at KRAS_G12D and cRAF it was 182 nM; on KRAS-G12D and SOS1, 31.7 nM.

Regarding `CCc1c(F)ccc2cccc(-c3c(F)cc4c(N5CC6CCC(C5)N6)nc(OC[C@@]56CCCN5C[C@H](F)C6)nc4c3F)c12` (single isomer, unassigned) [Compound 280a, 4-((1R,5S)-3,8-diazacyclo[3.2.1]octan-3-yl)-7-((S or R)-8-ethyl-7-fluoronaphthalen-1-yl)-6,8-difluoro-2-((2R,7aS)-2-fluorotetrahydro-1H-pyrrolidin-7a(5H)-yl)methoxy)quinazoline dihydrochloride], the half-maximal inhibitory concentration (IC50) on KRAS_WT and SOS1 is 234 nM; on KRAS_G12D and cRAF, 14.1 nM; at KRAS-G12D and SOS1, 17.1 nM.

Turning to `C[C@H]1COCCN1CCCOc1nc(N2C[C@H]3CC[C@@H](C2)N3)c2cc(Cl)c(-c3cc(O)cc4ccccc34)c(F)c2n1` (single isomer, unassigned) [Compound 174, (R or S)-4-(4-((1R,5S)-3,8-diazabicyclo[3.2.1]octan-3-yl)-6-chloro-8-fluoro-2-(3-((S)-3-methylmorpholinyl)propoxy)quinazolin-7-yl)naphthalen-2-ol diformate], the IC50 came to 1820 nM on KRAS_WT and SOS1; 170 nM at KRAS_G12D and cRAF; 57.8 nM on KRAS-G12D and SOS1.

As to `CN(C)C1CN(c2nc(N3C[C@@H]4CC[C@H]3CN4)c3cc(Cl)c(-c4cc(O)cc5ccccc45)c(F)c3n2)C1` (single isomer, unassigned) [Compound 4a, (R or S)-4-(4-((1S,4S)-2,5-diazabicyclo [2.2.2]octan-2-yl)-6-chloro-2-(3-(dimethylamino)azetidin-1-yl)-8-fluoro-quinazolin-7-yl)naphthalen-2-ol], the IC50 came to 401 nM at KRAS_WT and SOS1; 213 nM on KRAS_G12D and cRAF; 36.9 nM on KRAS-G12D and SOS1.

On to `N#Cc1cccc2cc(O)cc(-c3c(F)cc4c(N5CC6CCC(C5)N6)nc(OCCCN5C6CCC5COC6)nc4c3F)c12` (single isomer, unassigned) [Compound 278a, 8-((7S or 7R)-2-(3-(3-oxa-8-azabicyclo[3.2.1]octan-8-yl)propoxy)-4-((1R,5S)-3,8-diazabicyclo[3.2.1]octan-3-yl)-6,8-difluoroquinazolin-7-yl)-6-hydroxy-1-naphthonitrile diformate], for which the IC50 on KRAS_WT and SOS1 worked out at 122 nM; on KRAS_G12D and cRAF, 38.6 nM; at KRAS-G12D and SOS1, 17.6 nM.

With `C[C@H]1COC[C@H](C)N1CCCOc1nc(N2CC3CCC(C2)N3)c2cc(Cl)c(-c3cc(O)cc4ccccc34)c(F)c2n1` (single isomer, unassigned) [Compound 180, 4-((R or S)-4-((1R,5S)-3,8-diazabicyclo[3.2.1]octan-3-yl)-6-chloro-2-(3-((3S,5S)-3,5-dimethylmorpholinyl)propoxy)-8-fluoroquinazolin-7-yl)naphthalen-2-ol diformate], the IC50 was 3930 nM at KRAS_WT and SOS1; 256 nM at KRAS_G12D and cRAF; 87.3 nM at KRAS-G12D and SOS1.

Turning to `CN1CCC[C@H]1COc1nc(N2CC3CCC(C2)N3)c2cc(F)c(-c3cc(O)cc4ccccc34)c(F)c2n1` (single isomer, unassigned) [Compound 160a, (R or S) 4-(4-((1R,5S)-3,8-diazabicyclo[3.2.1]octan-3-yl)-6,8-difluoro-2-((S)-1-methylpyrrolidin-2-yl)methoxy)quinazolin-7-yl)naphthalen-2-ol dihydrochloride], the 50% inhibitory concentration (IC50) on KRAS_WT and SOS1 worked out at 152 nM; on KRAS_G12D and cRAF, 15.1 nM; on KRAS-G12D and SOS1, 19.4 nM.

Take `Cc1cc2c(N3CC4CCC(C3)N4)nc(OCCCN(C)C)nc2c(F)c1-c1cc(O)cc2ccccc12` (single isomer, unassigned) [Compound 149a, 4-((R or S)-4-((1R,5S)-3,8-diazabicyclo[3.2.1]octan-3-yl)-2-(3-(dimethylamino)propoxy)-8-fluoro-6-methylquinazolin-7-yl)naphthalen-2-ol hydrochloride]: the IC50 at KRAS_WT and SOS1 came to 854 nM; at KRAS_G12D and cRAF it was 96.9 nM; on KRAS-G12D and SOS1 it was 39.6 nM.

Turning to `CN(C)[C@H]1C[C@@H](Oc2nc(N3CC4CCC(C3)N4)c3cc(Cl)c(-c4cc(O)cc5ccccc45)c(F)c3n2)C1` (single isomer, unassigned) [Compound 69a, 4-((S or R)-4-((1R,5S)-3,8-diazabicyclo[3.2.1]octan-3-yl)-6-chloro-2-((1S,3R)-3-(dimethylamino)cyclobutoxy)-8-fluoroquinazolin-7-yl)naphthalen-2-ol dihydrochloride], the concentration for half-maximal inhibition (IC50) on KRAS_WT and SOS1 was greater than 100000 nM; on KRAS_G12D and cRAF, 1850 nM; at KRAS-G12D and SOS1, 225 nM.

As for `CC(C)(COc1nc(N2CC3CCC(C2)N3)c2cc(Cl)c(-c3cc(O)cc4ccccc34)c(F)c2n1)CN1C2CCC1COC2` (single isomer, unassigned) [Compound 120, 4-((7S or R)-2-(3-(3-oxa-8-azabicyclo[3.2.1]octan-8-yl)-2,2-dimethylpropoxy)-4-((1R,5S)-3,8-diazabicyclo[3.2.1]octan-3-yl)-6-chloro-8-fluoroquinazolin-7-yl)naphthalen-2-ol dihydrochloride], the IC50 at KRAS_WT and SOS1 was found to be 2670 nM; at KRAS_G12D and cRAF it was 72.7 nM; at KRAS-G12D and SOS1, 36.5 nM.

Take `Oc1cc(-c2c(Cl)cc3c(N4CC5CCC(C4)N5)nc(OCC(CN4C5CCC4COC5)C4CC4)nc3c2F)c2ccccc2c1` (single isomer, unassigned) [Compound 209a, 4-((7S or 7R))-2-(2(R or S))-3-(3-oxa-8-azabicyclo[3.2.1]octan-8-yl)-2-cyclopropylpropoxy)-4-((1R,5S)-3,8-diazabicyclo[3.2.1]octan-3-yl)-6-chloro-8-fluoroquinazolin-7-yl)naphthalen-2-ol diformate]: the half-inhibitory concentration (IC50) at KRAS_WT and SOS1 came to 5650 nM; on KRAS_G12D and cRAF it was 59.4 nM; on KRAS-G12D and SOS1 it was 36.1 nM.

As for `CN1C[C@@H]2C[C@@H]2[C@H]1COc1nc(N2CC3CCC(C2)N3)c2cc(Cl)c(-c3cc(O)cc4ccccc34)c(F)c2n1` (single isomer, unassigned) [Compound 183, 4-((R or S)-4-((1R,5S)-3,8-diazabicyclo[3.2.1]octan-3-yl)-6-chloro-8-fluoro-2-((1S,2S,5R)-3-methyl-3-azabicyclo[3.1.0]hexan-2-yl)methoxy)quinazolin-7-yl)naphthalen-2-ol diformate], the IC50 was 1510 nM on KRAS_WT and SOS1; 88.9 nM at KRAS_G12D and cRAF; 29.2 nM on KRAS-G12D and SOS1.

As for `Oc1cc(-c2c(Cl)cc3c(N4CC5CCC(C4)N5)nc(OCCCN4CCCCC4)nc3c2F)c2ccccc2c1` (single isomer, unassigned) [Compound 66a, 4-((S or R)-4-((1R,5S)-3,8-diazabicyclo[3.2.1]octan-3-yl)-6-chloro-8-fluoro-2-(3-(piperidin-1-yl)propoxy)quinazolin-7-yl)naphthalen-2-ol], the IC50 at KRAS_WT and SOS1 was determined as 1020 nM; at KRAS_G12D and cRAF, 139 nM; at KRAS-G12D and SOS1, 38.3 nM.

Take `CC[C@@H]1CN(CCCOc2nc(N3CC4CCC(C3)N4)c3cc(Cl)c(-c4cc(O)cc5ccccc45)c(F)c3n2)C[C@H](CC)O1` (single isomer, unassigned) [Compound 221, 4-((S or R)-4-((1R,5S)-3,8-diazabicyclo[3.2.1]octan-3-yl)-6-chloro-2-(3-((2S,6R)-2,6-diethylmorpholinyl)propoxy)-8-fluoroquinazolin-7-yl)naphthalen-2-ol formate]: the IC50 at KRAS_WT and SOS1 was determined as 5030 nM; on KRAS_G12D and cRAF it was 175 nM; at KRAS-G12D and SOS1, 63.6 nM.

What is called IC50 is the concentration that gives 50% inhibition.
